From US10087219B2, “Human alpha-defensin 5 variant and uses thereof” (priority 2016, dated 2018) come the findings set out here.

The test system of one series is THP-1 cells. Put plainly: Release of IL-1β mature body from LPS-stimulated THP-1 macrophages (immunoblotting). It is filed as cell-based. Particulars: LPS 100 ng/ml 3 h, FIG. 4. As for the experimental part:
THP-1 cells were cultured with RPMI-1640 culture media added with 10% fetal calf serum, and then inoculated on 24-well plate during logarithmic phase, 10^6 cells per well, added with PMA with final concentration of 100 nM for stimulating for 12 h so that cell adhered wall.
Media was exchanged with […] added with 10% fetal calf serum, and stood for 24 hours.
The following groups were set: blank group, LPS stimulation group, LPS+5 mM ATP group (positive control group), LPS+HD-5 group, LPS+HD-5Myr group, LPS+HD-5Lau group. 100 ng/ml lipopolysaccharide (LPS) was used or not to perform stimulation for 3 h, then gently washed twice with 1640 culture media, and then added or not with HD-5Myr or HD-5Lau with final concentration of 10 μg/ml and 20 μg/ml, or ATP with final concentration of 5 mM, or HD-5 with final concentration of 100 μg/ml and 200 μg/ml; and supernatant of each group was collected.
The proteins in supernatant in same volume were concentrated, lysed with protein lysis solution, and then release conditions of IL-1β mature body for different groups were compared by immunoblotting method.
(Immunoblotting shows a protein as a band on a membrane.)

A further series relates to human red cells. Put plainly: Hemolysis of human red cells. It is filed as cell-based. Particulars: 25 μg/ml; 4% human red cells, 37° C., 1 h; 10% Triton X-100 = 100% hemolysis; FIG. 3. As for the experimental part:
The hemolysis effects of antibacterial peptide HD-5 as well as its variants HD-5Myr and HD-5Lau on human red cell were measured.
Fresh human blood sample was collected, heparinized then centrifuged to take red cell layer;
washed with PBS for 3 times;
to EP tube, HD-5 and its variants with final concentrations of 50 μg/ml and 25 μg/ml were added separately; the positive control was added with 10% Triton X-100 in same volume, while the negative control was added with PBS in same volume.
4% human red cells were added separately, incubated at 37° C. for 1 h;
centrifuged, supernatant in same volume was taken and placed in 96-well plate, OD value at 540 nm was measured; by using the positive control as 100% hemolysis, and using the negative control as 0% hemolysis, the hemolysis rate for each well was calculated: Red cell hemolysis rate %=Test well OD value−negative control well OD valuePositive control well OD value−negative control OD×100%

Series [1] is described as follows: Micellar structure formation by transmission electron microscopy. Particulars: uranyl acetate staining, FIG. 1. It is filed as physicochemical. From the text:
Small amounts of HD-5, HD-5Myr and HD-5Lau samples were taken and dropped on copper grid used for electron microscope, excessive samples were sucked out with filter paper, after being dried at room temperature, uranyl acetate was used for staining.

The subject of the next series is MRSA-1. Put plainly: Antibacterial activity (LD90, optical density growth kinetics) against MRSA-1. Conditions: for LD90: MRSA-1 isolated in clinic, concentration required for killing 90% bacteria, 2 h incubation at 37° C. It is filed as cell-based, methicillin-resistant Staphylococcus aureus. As for the experimental part:
(§1) According to measurement of antibacterial activity of antibacterial peptides, the antibacterial potencies of the variants HD-5Myr, HD-Lau and MyrHD-5 of HD-5 as synthesized in Example 2 as well as natural HD-5 were compared.
(§2) The experiments were carried out according to the method for detecting antibacterial activity of antibacterial peptide as reported by Ericksen et al in 2005 (Ericksen B, et al., Antibacterial activity and specificity of the six human {alpha}-defensins. Antimicrob Agents Chemother, 2005).
Bacteria were inoculated on LB agar plate, and placed in 37° C. constant temperature incubator until bacterial colonies grew. Single colony was picked out, inoculated in 5 ml of LB culture media, and shake cultured at constant temperature of 37° C. for 4-6 h. It was then washed with sterile water twice. Optical density at 600 nm was measured with ELIASA, 1 OD600=4×10^8 CFU/ml, and the bacteria to be tested were diluted with sterile water to 2×10^6 CFU/ml.
To a sterile 96-plate, 50 μl of sterile water was added to each well, and then A1 well was added with an antibacterial peptide HD-5 sample diluted to a certain concentration. After being mixed evenly, 50 μl was taken therefrom and added to A2 well, thereby being diluted in multiple proportion manner in order, and 50 μl was sucked out from A6 well and discarded. By using the same method, MyrHD-5, HD-5Myr and HD-5Lau samples were diluted. The control well was 50 μl sterile water. Then, to each well, 50 μl of 2×10^6 CFU/ml bacteria was added, and shake cultured at constant temperature of 37° C. for 2 h. Then, 100 μl of LB culture media with double concentration was added separately. Optical density values at 600 nm were measured every 5 minutes in ELIASA at constant temperature of 37° C.
(§3) The measured optical density value minus the optical density value at time 0, and logarithm thereof was taken. […] According to this linear rule, bactericidal rates for different groups were calculated. […]

The subject of the next series is E. coli ATCC 25922. Description: Antibacterial activity (LD90, optical density growth kinetics) against E. coli ATCC 25922. Particulars: concentration required for killing 90% bacteria, 2 h incubation at 37° C. It is filed as cell-based, Escherichia coli. As for the experimental part: as §1, §2
(§4) Bacteria were inoculated on LB agar plate, and placed in 37° C. constant temperature incubator until bacterial colonies grew. […] Optical density at 600 nm was measured with ELIASA, 1 OD600=4×10^8 CFU/ml, and the bacteria to be tested were diluted with sterile water to 2×10^6 CFU/ml.
(§5) To a sterile 96-plate, 50 μl of sterile water was added to each well, and then A1 well was added with an antibacterial peptide HD-5 sample diluted to a certain concentration. […] Optical density values at 600 nm were measured every 5 minutes in ELIASA at constant temperature of 37° C.
as §3

For the next series, the system named is S. aureus ATCC 25923. Put plainly: Antibacterial activity (LD90, optical density growth kinetics) against S. aureus ATCC 25923. It is filed as cell-based, Staphylococcus aureus. Conditions: concentration required for killing 90% bacteria, 2 h incubation at 37° C. As for the experimental part: as §1, §2, §4, §5, §3

Positions of bridges follow the written chain, without caps; N, C: chain ends. Residues, ends and D or L forms follow the SMILES beside them. No end group written: not given here. *: point of attachment. Myristoyl = CCCCCCCCCCCCCC(=O)*; Lauroyl = CCCCCCCCCCCC(=O)*

Turning to `Nc1ncnc2c1ncn2[C@@H]1O[C@H](COP(=O)(O)OP(=O)(O)OP(=O)(O)O)[C@@H](O)[C@H]1O` [ATP], in the series with THP-1 cells (then 5 mM ATP (positive control)), the “Release of IL-1β mature body” value is given as “exhibited release of IL-1β mature body”.
In the series on human red cells, `CCCCCCCCCCCC(=O)NCCCC[C@H](NC(=O)CNC(=O)[C@H](CCCNC(=N)N)NC(=O)[C@@H]1CSSC[C@H](NC(=O)[C@@H](NC(=O)[C@H](C)N)[C@@H](C)O)C(=O)N[C@@H](Cc2ccc(O)cc2)C(=O)N[C@H]2CSSC[C@@H]3NC(=O)[C@H](C(C)C)NC(=O)CNC(=O)[C@H](CO)NC(=O)[C@H](CC(C)C)NC(=O)[C@H](CO)NC(=O)[C@H](CCC(=O)O)NC(=O)[C@H](CCCNC(=N)N)NC(=O)[C@H]([C@@H](C)O)NC(=O)[C@H](C)NC(=O)[C@H](CSSC[C@H](NC(=O)[C@H](CC(C)C)NC(=O)[C@H](CCCNC(=N)N)NC(=O)[C@H](Cc4ccc(O)cc4)NC(=O)[C@H](CC(C)C)NC(=O)[C@H](CCCNC(=N)N)NC(=O)CNC(=O)[C@H](CO)NC(=O)[C@H]([C@@H](C)CC)NC(=O)[C@H](CCC(=O)O)NC3=O)C(=O)N1)NC(=O)[C@H](CCCNC(=N)N)NC(=O)CNC(=O)[C@H]([C@@H](C)O)NC(=O)[C@H](CCCNC(=N)N)NC2=O)C(N)=O` [HD-5Lau] (H-ATCYCRTGRCATRESLSGVCEISGRLYRLCCRGK(Lauroyl)-NH2; disulfide 3-31, 5-20, 10-30) showed a hemolysis rate of 2.24%.
On to `CCCCCCCCCCCCCC(=O)NCCCC[C@H](NC(=O)CNC(=O)[C@H](CCCNC(=N)N)NC(=O)[C@@H]1CSSC[C@H](NC(=O)[C@@H](NC(=O)[C@H](C)N)[C@@H](C)O)C(=O)N[C@@H](Cc2ccc(O)cc2)C(=O)N[C@H]2CSSC[C@@H]3NC(=O)[C@H](C(C)C)NC(=O)CNC(=O)[C@H](CO)NC(=O)[C@H](CC(C)C)NC(=O)[C@H](CO)NC(=O)[C@H](CCC(=O)O)NC(=O)[C@H](CCCNC(=N)N)NC(=O)[C@H]([C@@H](C)O)NC(=O)[C@H](C)NC(=O)[C@H](CSSC[C@H](NC(=O)[C@H](CC(C)C)NC(=O)[C@H](CCCNC(=N)N)NC(=O)[C@H](Cc4ccc(O)cc4)NC(=O)[C@H](CC(C)C)NC(=O)[C@H](CCCNC(=N)N)NC(=O)CNC(=O)[C@H](CO)NC(=O)[C@H]([C@@H](C)CC)NC(=O)[C@H](CCC(=O)O)NC3=O)C(=O)N1)NC(=O)[C@H](CCCNC(=N)N)NC(=O)CNC(=O)[C@H]([C@@H](C)O)NC(=O)[C@H](CCCNC(=N)N)NC2=O)C(N)=O` [HD-5Myr] (H-ATCYCRTGRCATRESLSGVCEISGRLYRLCCRGK(Myristoyl)-NH2; disulfide 3-31, 5-20, 10-30), for which, in the series with human red cells, the hemolysis rate is 6.83%.
“Human defensin-5 (ATCYCRTGRCATRESLSGVCEISGRLYRLCCR; disulfide 10-30, 5-20, 3-31; listed as Homo sapiens) [HD-5, the modification template]”: in the series on THP-1 cells (then peptide at 100 μg/ml and 200 μg/ml), the “Release of IL-1β mature body” value is “could promote the release of IL-1β mature body”. For the same molecule, the “Formation of micellar structure” value in series [1] is reported as “micellar structure was not observed”. In the series with MRSA-1 (MRSA versus S. aureus ATCC 25923), the “LD90 against methicillin-resistant Staphylococcus aureus compared with LD90 against Staphylococcus aureus ATCC 25923” value is reported as “far lower”. The LD90 in the series on MRSA-1 was 5.850 µg/mL; in the series on E. coli ATCC 25922, 6.691 µg/mL; in the series with S. aureus ATCC 25923 it was above 12.5 µg/mL.
Regarding “MyrHD-5: 33-residue N-terminally modified HD-5 variant (SEQ ID NO: 3), Gly1 amino group linked to a myristoyl (Myristoyl-GATCYCRTGRCATRESLSGVCEISGRLYRLCCR; disulfide 11-31, 6-21, 4-32)”, the LD90 was 1.400 µg/mL in the series on MRSA-1, above 12.5 µg/mL with E. coli ATCC 25922 and 6.280 µg/mL with S. aureus ATCC 25923.
